Measured values as given in US20250313563A1, “GLYCOGEN SYNTHASE KINASE 3 INHIBITORS AND USES THEREOF” (The Broad Institute, Inc., priority 2022, published 2025).
Where two headings read alike, the source gives them in different places.

Columns and labels:
[1] = biological target: GSK3b (GST-full length GSK3b) (Homo sapiens (Human), UniProt P49841); test: GSK3b TR-FRET kinase assay; assay type: biochemical
Method in brief: (§1)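 In this time-resolved FRET format, kinase reactions contained 200 nM biotinylated, S645-phosphorylated glycogen synthase 631-650 peptide and either isoform-specific ATP (2 μM GSK3b, 4 μM GSK3α) or 1 mM ATP. They were quenched with EDTA after 100 min at ambient temperature. Inhibition curves gave IC50 values.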

[2] = biological target: GSK3α (GST-full length GSK3α) (Homo sapiens (Human), UniProt P49840); test: GSK3α TR-FRET kinase assay; assay type: biochemical
Method in brief: as §1

[3] = 1 nM GSK3b, 2 μM ATP, 30 minute preincubation, read-out: GSK3-B TR-FRET BIOCHEMICAL (TR-FRET), IC50
[4] = 1 nM GSK3α, 4 μM ATP, 30 minute preincubation, read-out: GSK3-A TR-FRET BIOCHEMICAL (TR-FRET), IC50
[5] = 1 nM GSK3b, 2 μM ATP, 30 minute preincubation, Table 16, read-out: GSK3-B TR-FRET BIOCHEMICAL (TR-FRET)
[6] = 1 nM GSK3α, 4 μM ATP, 30 minute preincubation, Table 16, read-out: GSK3-A TR-FRET BIOCHEMICAL (TR-FRET)
[7] = 1 nM GSK3b, 2 μM ATP, 30 minute preincubation, Table 16, read-out: GSK3-B TR-FRET BIOCHEMICAL (TR-FRET), IC50
[8] = 1 nM GSK3α, 4 μM ATP, 30 minute preincubation, Table 16, read-out: GSK3-A TR-FRET BIOCHEMICAL (TR-FRET), IC50

Chain of GSK3b (GST-full length GSK3b) (P49841 whole entry, canonical isoform): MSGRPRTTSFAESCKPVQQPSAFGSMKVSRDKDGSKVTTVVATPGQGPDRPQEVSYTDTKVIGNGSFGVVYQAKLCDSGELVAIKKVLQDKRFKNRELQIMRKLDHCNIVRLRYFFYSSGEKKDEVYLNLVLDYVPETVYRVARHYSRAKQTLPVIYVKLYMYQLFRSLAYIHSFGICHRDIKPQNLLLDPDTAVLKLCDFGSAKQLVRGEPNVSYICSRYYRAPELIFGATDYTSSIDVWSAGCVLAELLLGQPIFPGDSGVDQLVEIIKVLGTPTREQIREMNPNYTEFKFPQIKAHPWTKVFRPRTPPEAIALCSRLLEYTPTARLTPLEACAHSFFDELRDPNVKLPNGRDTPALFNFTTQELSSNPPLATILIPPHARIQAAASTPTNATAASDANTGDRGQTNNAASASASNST
Chain of GSK3α (GST-full length GSK3α) (P49840 whole entry): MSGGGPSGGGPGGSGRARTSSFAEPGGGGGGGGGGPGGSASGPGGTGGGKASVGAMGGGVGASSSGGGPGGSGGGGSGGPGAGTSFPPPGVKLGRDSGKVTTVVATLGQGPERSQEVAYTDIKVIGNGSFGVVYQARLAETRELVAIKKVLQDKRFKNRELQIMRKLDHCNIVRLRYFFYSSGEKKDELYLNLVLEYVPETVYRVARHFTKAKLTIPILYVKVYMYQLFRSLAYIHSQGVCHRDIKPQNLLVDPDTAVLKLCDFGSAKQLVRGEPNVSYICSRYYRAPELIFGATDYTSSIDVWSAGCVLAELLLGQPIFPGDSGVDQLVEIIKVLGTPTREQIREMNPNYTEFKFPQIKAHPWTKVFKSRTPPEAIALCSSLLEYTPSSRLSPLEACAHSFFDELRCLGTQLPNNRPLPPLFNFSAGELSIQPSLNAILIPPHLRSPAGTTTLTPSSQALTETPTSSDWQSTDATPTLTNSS

| IC50 [1, 7] [nM] | IC50 [2, 8] [nM] | SMILES | other results |
| --- | --- | --- | --- |
| – | – | CC1(C)CC(=O)C2=C(C1)Nc1n[nH]cc1C21CCC2(CC1)COC2 [Compound 883977] | IC50 [1, 3]: 100 to 1000 nM; IC50 [2, 4]: ≤ 100 nM |
| – | – | CC1(C)CC(=O)C2=C(C1)Nc1n[nH]cc1C21CCCCCC1 [Compound 883978] | IC50 [1, 5]: 100 to 1000 nM; IC50 [2, 6]: 100 to 1000 nM |
| – | – | CC[C@@]1(c2cccc(C(F)(F)F)c2)C2=C(Nc3n[nH]cc31)[C@H](C)CN(C)C2=O [Compound 883980] | IC50 [1, 3]: ≤ 100 nM; IC50 ([1]; read-out: GSK3-B (TR-FRET 1 mM ATP), GMean, IC50, 1 mM ATP, geometric mean): 1000 to 5000 nM; IC50 [2, 4]: ≤ 100 nM; IC50 ([2]; read-out: GSK3-A (TR-FRET 1 mM ATP), GMean, IC50, 1 mM ATP, geometric mean): 100 to 1000 nM |
| – | – | CC[C@]1(c2cccc(C(F)(F)F)c2)C2=C(Nc3n[nH]cc31)[C@@H](C)CN(C)C2=O [Compound 883981] | IC50 [1, 3]: > 5000 nM; IC50 [2, 4]: > 5000 nM |
| – | – | CC[C@]1(c2cccc(C(F)(F)F)c2)C2=C(Nc3n[nH]cc31)[C@H](C)CN(C)C2=O [Compound 883982] | IC50 [1, 3]: > 5000 nM; IC50 [2, 4]: > 5000 nM |
| ≤ 100 | ≤ 100 | CCC1(c2cccc(-c3ccncc3)c2)C2=C(CC(C)(C)CC2=O)Nc2n[nH]cc21 (centres unmarked) [Compound 883984] | – |
| ≤ 100 | ≤ 100 | CCC1(c2cccc(-c3ccncc3F)c2)C2=C(CC(C)(C)CC2=O)Nc2n[nH]cc21 (centres unmarked) [Compound 883986] | – |
| 100 to 1000 | ≤ 100 | CCC1(c2cccc(-c3ccnc(C)c3)c2)C2=C(CC(C)(C)CC2=O)Nc2n[nH]c(C)c21 (centres unmarked) [Compound 883987] | – |
| 100 to 1000 | ≤ 100 | CCC1(c2cccc(-c3ccnc(C(F)(F)F)c3)c2)C2=C(CC(C)(C)CC2=O)Nc2n[nH]c(C)c21 (centres unmarked) [Compound 883989] | – |
| 100 to 1000 | ≤ 100 | CCC1(c2cccc(-c3ccnc(N(C)C)c3)c2)C2=C(CC(C)(C)CC2=O)Nc2n[nH]c(C)c21 (centres unmarked) [Compound 883990] | – |
| ≤ 100 | ≤ 100 | CCC1(c2cccc(-c3ccncc3C)c2)C2=C(CC(C)(C)CC2=O)Nc2n[nH]c(C)c21 (centres unmarked) [Compound 883991] | – |
| ≤ 100 | ≤ 100 | CCC1(c2cccc(-c3ccnn3C)c2)C2=C(CC(C)(C)CC2=O)Nc2n[nH]c(C)c21 (centres unmarked) [Compound 883992] | – |
| ≤ 100 | ≤ 100 | CCC1(c2cccc(-c3cnn(C)c3C)c2)C2=C(CC(C)(C)CC2=O)Nc2n[nH]c(C)c21 (centres unmarked) [Compound 883993] | – |
| ≤ 100 | ≤ 100 | CCC1(c2cccc(-c3cn[nH]c3)c2)C2=C(CC(C)(C)CC2=O)Nc2n[nH]c(C)c21 (centres unmarked) [Compound 883994] | – |
| ≤ 100 | ≤ 100 | CCC1(c2cccc(-c3c(C)nn(C)c3C)c2)C2=C(CC(C)(C)CC2=O)Nc2n[nH]c(C)c21 (centres unmarked) [Compound 883995] | – |
| 100 to 1000 | ≤ 100 | CCC1(c2cccc(-c3cnn(CCOC)c3)c2)C2=C(CC(C)(C)CC2=O)Nc2n[nH]c(C)c21 (centres unmarked) [Compound 883996] | – |
| ≤ 100 | ≤ 100 | CCC1(c2cccc(-c3ccn(C)n3)c2)C2=C(CC(C)(C)CC2=O)Nc2n[nH]c(C)c21 (centres unmarked) [Compound 883999] | – |
| ≤ 100 | ≤ 100 | CCC1(c2cccc(-c3cncn3C)c2)C2=C(CC(C)(C)CC2=O)Nc2n[nH]c(C)c21 (centres unmarked) [Compound 884001] | – |
| ≤ 100 | ≤ 100 | CCC1(c2cccc(-c3cnn4c3CCCC4)c2)C2=C(CC(C)(C)CC2=O)Nc2n[nH]c(C)c21 (centres unmarked) [Compound 884002] | – |
| ≤ 100 | ≤ 100 | CCC1(c2cccc(-c3cn(C)nc3C)c2)C2=C(CC(C)(C)CC2=O)Nc2n[nH]c(C)c21 (centres unmarked) [Compound 884003] | – |
| – | – | CC1(C)CC(=O)C2=C(C1)Nc1n[nH]cc1[C@]21C[C@@H](n2cccn2)C1 [Compound 884004] | IC50 [1, 5]: ≤ 100 nM; IC50 [2, 6]: ≤ 100 nM |
| – | – | CC1(C)CC(=O)C2=C(C1)Nc1n[nH]cc1[C@]21C[C@H](n2cccn2)C1 [Compound 884005] | IC50 [1, 5]: ≤ 100 nM; IC50 [2, 6]: ≤ 100 nM |
| > 5000 | 1000 to 5000 | CC(C)[C@@H]1C[C@@]2(CCO1)C1=C(CC(C)(C)CC1=O)Nc1n[nH]cc12 [Compound 884013] | – |
| > 5000 | 1000 to 5000 | CC(C)[C@H]1C[C@]2(CCO1)C1=C(CC(C)(C)CC1=O)Nc1n[nH]cc12 [Compound 884014] | – |
